# In patent US9260707B2, “Compounds for inhibition of MMP13-substrate interactions and methods of use thereof to treat osteoarthritis and cartilage degeneration” (ProteaPex Therapeutics, LLC, priority 2010, dated 2016):
# Peptide text beside a SMILES is read from it.
# B1: BMP-7: BMP-7 protein, positive control, chondroprotective and bone-inducing (protein, UniProt P18075 293-431, looked up)
# Bone morphogenetic protein 7: STGSKQRSQNRSKTPKNQEALRMANVAENSSSDQRQACKKHELYVSFRDLGWQDWIIAPEGYAAYYCEGECAFPLNSYMNATNHAIVQTLVHFINPETVPKPCCAPTQLNAISVLYFDDSSNVILKKYRNMVVRACGCH
# How the values were obtained:
# MMP13 = MMP13 enzymatic activity in cartilage extracts with inhibitors; type: biochemical, avian
# Method: Utilizing a standard curve with MMP13 and MMP9 catalytic domains (Enzo, Inc) we quantitated the amount of MMP13 and MMP9 activity in cartilage extracts (Table 4). Cartilage isolated from day 17 avian embryos contain 0.166 units and 0.152 units MMP13 per 40 μg total tissue in early hypertrophic and late hypertrophic tissue, respectively. […] Inclusion of an inhibitor of MMP13 (Calbiochem) reduces the activity in both cartilage populations by 24% and 30% respectively.
# [1] = Toxicity in vivo by blood analysis; design: species or system rat
# Method: Cytotoxicity was assessed by Alomar Blue Assay (Invitrogen) on primary chondrocytes and a monocyte cell line incubated for 24 hours with PxTx001-1. Absorbance was recorded at 570 nm for every hour up to 24 hrs to monitor both proliferation and metabolic activity. (FIG. 39). Toxicity in vivo was determined by blood analysis from rats that had been injected with the peptide as described previously. Total cell count, blood components and serum proteins were measured (Table 5).
# MMP = settings: in vivo; cited from earlier work
# [2] = system: hypertrophic chondrocyte-produced extracellular matrix (LTBP1 in native conformation); experiment: Peptide binding to extracellular matrix of whole cell primary chondrocyte cultures; design: species or system avian
# Method: (§1) Binding assays utilizing intact hypertrophic chondrocyte-produced extracellular matrix, LTBP1 immunoprecipitates of hypertrophic chondrocyte-produced extracellular matrix and recombinant protein of the calcium-binding, EGF-like domains of LTBP1 (30) were performed as described in Materials and Methods. *=p<0.001 compared to scrambled. ***=p<0.001 compared to MMP13-derived peptide by ANOVA with Tukey's analysis. (A) Intact hypertrophic chondrocyte-produced extracellular matrix and MMP13-19 or MMP13-10 peptide binding. (B) 25 μg eluates of hypertrophic cartilage immunoprecipitated with polyclonal antibody to LTBP1 and MMP13-19 peptide binding. (C) 15 ng of recombinant protein of the calcium-binding, EGF-like domains and MMP13-19 or MMP13-10 or MMP13-6 peptide binding.
# Sterna were removed from day 17 chick embryos using microsurgical techniques as previously described (D'Angelo et al., J. Bone Miner. Res. 12:1368-1377, 1997). […] The cell suspensions were then filtered through a […] filter, counted, seeded onto Falcon 6-well, tissue culture treated plates and covered with 2 ml of high glucose DMEM containing 10% NuSerum and 50 μg/ml of penicillin/streptomycin, 2 mM of L-glutamine (Invitrogen Life Technologies, Carlsbad, Calif., USA). […]
# [3] = system: hypertrophic cartilage tissue extract (LTBP1-containing TGFβ large latent complex); experiment: Peptide binding assay, hypertrophic cartilage tissue extract; design: species or system avian; settings: 100 nM fluorescent-labeled peptide
# Source text: (§2) Cartilage from day 17 avian embryo sterna was extracted with 0.5% CHAPS buffer and binding assays conducted. Scr=scrambled control; +cold=unlabeled competition. *=p<0.001 compared to scrambled. ***=p<0.001 compared to MMP13-derived peptide by ANOVA with Tukey's Analysis. (A) Resting cartilage and MMP13-19 peptide. (B) Hypertrophic cartilage and MMP13-19 peptide. (C) Hypertrophic cartilage and MMP13-10 peptide D. hypertrophic cartilage and MMP13-6 peptide.
# (§3) Twenty-five micrograms of total equal protein from cartilage CHAPS extracts or five nanograms recombinant protein of the calcium-like EGF binding domain of LTBP1 (a kind gift of Sarah Dallas) or hypertrophic cartilage from day 17 avian embryo sterna and tibial growth plate cartilage from day 14 newborn rat pups were extracted with 0.5% CHAPS buffer and eluates immunoprecipitated with polyclonal antibody to LTBP1 and then samples were plated onto poly-L-lysine coated 96 well plates. After overnight drying, the protein-coated wells were incubated with 100 nM fluorescent-labeled peptide in Tris buffered saline [150 mM NaCl, 10 mM Tris, pH 8.0] and 20% horse serum for 4 hours at 16° C. After incubation, the wells are washed twice with binding buffer, the protein layer solubilized with 5N NaOH and fluorescence bound measured at 495 nm excitation and 520 nm emission on the LabSystems Fluoroskan Ascent CF plate reader. […]
# [4] = system: resting cartilage tissue extract (LTBP1-containing TGFβ large latent complex); experiment: Peptide binding assay, resting cartilage tissue extract; design: species or system avian; settings: 100 nM fluorescent-labeled peptide
# Source text: as §2, §3
# [5] = system: calcium-binding EGF-like domains of LTBP1 (CE-LTBP1); experiment: Peptide binding to recombinant calcium-binding EGF-like domains of LTBP1 (CE-LTBP1)
# Method: as §1, with “(C) 15 ng of recombinant protein of the calcium-binding, EGF-like domains and MMP13-19 or MMP13-10 or MMP13-6 peptide binding.” left out
# as §3, with “After overnight drying, the protein-coated wells were incubated with 100 nM fluorescent-labeled peptide in Tris buffered saline [150 mM NaCl, 10 mM Tris, pH 8.0] and 20% horse serum for 4 hours at 16° C.” left out
# MIA-induced OA model = experiment: Acute treatment of MIA-induced OA, week 4 micro CT; type: in vivo, rat
# [6] = system: mono-iodoacetate (MIA)-induced osteoarthritis; experiment: MIA-induced osteoarthritis, cartilage mineralization (total and bone volume), d14 and d21; type: in vivo, rat; design: Total Volume / Bone Volume: unit not given here
# Method: Isolated joints were analyzed by Micro CT to measure cortical bone, trabecular bone and cartilage of the patella, femur and tibia, the production of chondrophytes and tissue mineralization in response to treatment. Total mineralization in the patella, femur and tibial cartilages, as well as subchondral bone, were calculated with Scanco μCT software. Micro-CT was conducted with a Scanco uCT 35 (Scanco Medical, Bassersdorf, Switzerland) system. Scans of 15 μm voxel size, 55 KVp, 0.36 degrees rotation step (180 degrees angular range) and a 600 ms exposure per view produced from joints immersed in phosphate buffered saline.
# Animals were treated with MMP13-19 peptide or BMP-7 protein once a week for two (d14) or three (d21) weeks following an injection of mono-iodoacetate (MIA), a chemical agent that induces osteoarthritis pathology measurable at four weeks post injection. The samples that received saline are the positive disease control. 250 nM of MMP13-19 peptide and 50 uM BMP-7 were injected laterally below the patellar ligament. […] But, it is also known that BMP-7 is bone-inducing.
molecule,measurement,setting,value
Cc1cc(CNC(=O)c2cc(C(=O)NCc3ccc(F)c(C)c3)ncn2)ccc1F [MMP13 Inhibitor],reduction of MMP13 activity,MMP13; early hypertrophic tissue,24%
same,reduction of MMP13 activity,MMP13; late hypertrophic tissue,30%
CC[C@H](C)[C@H](NC(=O)[C@H](CCCCN)NC(=O)[C@H](CCCCN)NC(=O)[C@@H](NC(=O)[C@H](CCC(=O)O)NC(=O)[C@H](CCCCN)NC(=O)[C@@H]1CCCN1C(=O)[C@H](CC(C)C)NC(=O)CNC(=O)[C@H](CC(C)C)NC(=O)[C@@H](N)CCC(=O)O)C(C)C)C(=O)N[C@@H](CO)C(=O)N[C@@H](C)C(=O)N[C@@H](C)C(=O)N[C@H](C(=O)N[C@@H](Cc1c[nH]cn1)C(=O)N[C@@H](Cc1ccccc1)C(=O)N[C@@H](CCC(=O)O)C(=O)N[C@@H](CC(=O)O)C(=O)O)C(C)C [MMP13-19 peptide] (H-ELGLPKEVKKISAAVHFED-OH),ALT,[1]; 1 injection,56 U/L
same,AST,[1]; 1 injection,99 U/L
same,Alk Phos,[1]; 1 injection,272 U/L
same,BUN,[1]; 1 injection,15 mg/dL
same,Cholesterol,[1]; 1 injection,74 mg/dL
same,Creatinine,[1]; 1 injection,0.4 mg/dL
same,RBC,[1]; 1 injection,5.59e+06 µL⁻¹
same,Total Bilirubin,[1]; 1 injection,0.3 mg/dL
same,WBC,[1]; 1 injection,3600 µL⁻¹
same,ALT,[1]; 4 injections,52 U/L
same,AST,[1]; 4 injections,95 U/L
same,Alk Phos,[1]; 4 injections,194.5 U/L
same,BUN,[1]; 4 injections,18 mg/dL
same,Cholesterol,[1]; 4 injections,67.5 mg/dL
same,Creatinine,[1]; 4 injections,0.3 mg/dL
same,RBC,[1]; 4 injections,6.9e+06 µL⁻¹
same,Total Bilirubin,[1]; 4 injections,1.1 mg/dL
same,WBC,[1]; 4 injections,4550 µL⁻¹
same,"total cell count, blood components and serum proteins (all parameters measured)",[1]; rats injected with the peptide,within normal ranges
COc1ccc(S(=O)(=O)N(Cc2cccnc2)[C@@H](C(=O)NO)C(C)C)cc1 [CGS-27023A],side-effects in treatment of OA,MMP,severe side-effects known as MMP-induced musculoskeletal syndrome
MMP13-6 peptide: amino acids 37-42 of SEQ ID NO: 1 (VDAELF; listed as Homo sapiens),binding compared to scrambled peptide,[2],did not bind specifically
same,binding compared to scrambled peptide control,[3],did not specifically bind
same,binding compared to scrambled peptide control,[4],did not specifically bind
same,binding of recombinant protein more than scrambled peptide,[5],did not bind specifically
CC1(C)SCCN(S(=O)(=O)c2ccc(Oc3ccncc3)cc2)[C@H]1C(=O)NO [prinomastat],side-effects in treatment of OA,MMP,severe side-effects known as MMP-induced musculoskeletal syndrome
MMP13-10 peptide: amino acids 17-26 of SEQ ID NO: 1 (LRGETMIFKD; listed as Homo sapiens),binding compared to scrambled peptide,[2],four-fold
same,binding compared to scrambled peptide control,[3],less than two-fold
same,binding compared to scrambled peptide control,[4],less than two-fold
same,binding of recombinant protein more than scrambled peptide,[5],did not bind specifically
B1,BV/TV (ratio of bone volume to total volume),MIA-induced OA model; Femur,0.2245 +/− 0.066
same,TbN (trabecular number),MIA-induced OA model; Femur,4.200 +/− 0.830
same,TbN (trabecular number),MIA-induced OA model; Patella,6.2122 +/− 0.169
same,BV/TV (ratio of bone volume to total volume),"MIA-induced OA model; Patella, 250 nM peptide or 500 ng BMP7 weekly infrapatellar",0.6846 +/− 0.084
same,BV/TV (ratio of bone volume to total volume),MIA-induced OA model; Tibia,0.1757 +/− 0.087
same,TbN (trabecular number),MIA-induced OA model; Tibia,4.9095 +/− 0.719
same,BV/TV,[6]; Patellar cartilage d14,0.0626
same,Bone Volume,[6]; Patellar cartilage d14,0.419
same,Total Volume,"[6]; Patellar cartilage d14, 250 nM peptide or 50 uM BMP-7 once a week",6.6967
same,BV/TV,[6]; Patellar cartilage d21,0.0192
same,Bone Volume,[6]; Patellar cartilage d21,0.2037
same,Total Volume,[6]; Patellar cartilage d21,10.7748
same,BV/TV,[6]; Total Joint Cartilage d14,0.0435
same,Bone Volume,[6]; Total Joint Cartilage d14,1.0643
same,Total Volume,[6]; Total Joint Cartilage d14,24.4891
same,BV/TV,[6]; Total Joint Cartilage d21,0.0412
same,Bone Volume,[6]; Total Joint Cartilage d21,0.9607
same,Total Volume,[6]; Total Joint Cartilage d21,23.3101
